Source: patent US10287271B2, “Indole compounds having antiprotozoal activity and its use as well as methods for producing the same” (TECHNISCHE UNIVERSITAET BRAUNSCHWEIG, priority 2015, dated 2019)

System: NF54-luc P. falciparum
Experiment: luciferase-based viability assay, erythrocytic stages of transgenic NF54-luc P. falciparum
Type: cell-based, Plasmodium falciparum
Details: for inhibition at 3 µM / inhibition at 30 µM / EC50: Plasmodium falciparum; for inhibition at 3 µM / inhibition at 30 µM: NF54, 48 hours; for inhibition at 3 µM: 3 μM test compound; for inhibition at 30 µM: 30 μM test compound; for EC50: erythrocytic stages NF54-luc, 48 hours incubation, titration
Protocol: Erythrocytic stages of transgenic NF54-luc P. falciparum were used for the luciferase-based viability assay. First, the culture was dispensed in triplicate into white 96-well flat bottom plates (each well contains 250 ul) (NUNC, Denmark) with parasitemia of 0.5-1%. Then the cultures were incubated in the presence of a 30 μM concentration of the test compounds for 48 hours (37° C., 90% N2, 5% CO2, and 5% O2). Subsequently, 100 ul RPMI1640 media was removed from each well and a 100 μL volume of the Bright-Glo® substrate solution was added to each well. One of the cleavage products of the reaction is light, which was measured by a FLUOROSKAN FL luminometer (Thermo) machine; thereby detecting the amount of living parasites. In case the inhibition of the proliferation exceeded 50%, the experiments were repeated with 3 μM solutions. […] The EC50 value is the half maximal effective concentration (the concentration at which half maximal inhibition is observed). Untreated cultures were used as negative controls and to calculate the inhibition rate (0% inhibition of parasite growth). Blasticidin (Sigma-Aldrich, St. Louis, Mo.), a drug used for selection of transfected parasites, was included as a positive control on each plate and gave >90% inhibition of parasite growth at 2 μg/mL.

## COc1ccc2[nH]cc(-c3c(-c4c(C)[nH]c5ccccc45)c(=O)c3=O)c2c1 [KuHL018, 3-(5-Methoxy-1H-indol-3-yl)-4-(2-methyl-1H-indol-3-yl)cyclobut-3-en-1,2-dione]
  inhibition at 3 µM: 34.2 ± 8%
  inhibition at 30 µM: 99.6 ± 0.2%
  EC50: 10 µM

## O=c1c(-c2c[nH]c3ccccc23)c(-c2c[nH]c3ccc(Br)cc23)c1=O [KuHL037, 3-(5-Bromo-1H-indol-3-yl)-4-(1H-indol-3-yl)cyclobut-3-ene-1,2-dione]
  inhibition at 3 µM: 65.9 ± 1.8%
  inhibition at 30 µM: 99.5 ± 0.4%
  EC50: 3.02 µM

## COc1ccc2[nH]cc(-c3c(-c4c[nH]c5ccc(OCc6ccccc6)cc45)c(=O)c3=O)c2c1 [KuHL136, 3-[5-(Benzyloxy)-1H-indol-3-yl]-4-(5-methoxy-1H-indol-3-yl)cyclobut-3-ene-1,2-dione]
  inhibition at 3 µM: 21.7 ± 2.5%

## Cc1[nH]c2ccccc2c1-c1c(-c2cn(C)c3ccc(Br)cc23)c(=O)c1=O [KuHL077, 3-(5-Bromo-1-methyl-1H-indol-3-yl)-4-(2-methyl-1H-indol-3-yl)cyclobut-3-ene-1,2-dione]
  inhibition at 3 µM: 12.7 ± 2.8%

## COc1ccc2[nH]cc(-c3c(-c4cn(C)c5ccccc45)c(=O)c3=O)c2c1 [KuHL057, 3-(5-Methoxy-1H-indol-3-yl)-4-(1-methyl-1H-indol-3-yl)cyclobut-3-ene-1,2-dione]
  inhibition at 30 µM: 13.6 ± 3.9%

## O=c1c(-c2c[nH]c3ccccc23)c(-c2c[nH]c3ccccc23)c1=O [KuHL043, 3,4-Bis(1H-indol-3-yl)cyclobut-3-ene-1,2-dione]
  inhibition at 3 µM: 17.9 ± 3.3%
  inhibition at 30 µM: 99.2 ± 0.2%
  EC50: 8.33 µM

## O=c1c(-c2c[nH]c3ccccc23)c(-c2c[nH]c3ccc(Cl)cc23)c1=O [KuHL118, 3-(5-Chloro-1H-indol-3-yl)-4-(1H-indol-3-yl)cyclobut-3-ene-1,2-dione]
  inhibition at 3 µM: 44.7 ± 0.5%

## COc1ccc2[nH]cc(-c3c(-c4c[nH]c5ccc(F)cc45)c(=O)c3=O)c2c1 [KuHL113, 3-(5-Fluoro-1H-indol-3-yl)-4-(5-methoxy-1H-indol-3-yl)cyclobut-3-ene-1,2-dione]
  inhibition at 3 µM: 19.3 ± 3.1%

## COc1ccc2[nH]cc(-c3c(-c4c[nH]c5ccccc45)c(=O)c3=O)c2c1 [KuHL049, 3-(1H-Indol-3-yl)-4-(5-methoxy-1H-indol-3-yl)cyclobut-3-ene-1,2-dione]
  inhibition at 3 µM: 18.3 ± 5%

## N#Cc1ccc2[nH]cc(-c3c(-c4c[nH]c5ccccc45)c(=O)c3=O)c2c1 [KuHL122, 3-[2-(1H-Indol-3-yl)-3,4-dioxocyclobut-1-ene-1-yl]-1H-indol-5-carbonitrile]
  inhibition at 3 µM: 26.8 ± 1.6%

## Cc1[nH]c2ccccc2c1-c1c(-c2c(C)[nH]c3ccccc23)c(=O)c1=O [KuHL012, 3,4-Bis(2-methyl-1H-indol-3-yl)cyclobut-3-ene-1,2-dione]
  inhibition at 3 µM: 18.3 ± 6.3%
  inhibition at 30 µM: 77.8 ± 5.9%

## O=c1c(-c2c[nH]c3ccc(Br)cc23)c(-c2c(-c3ccccc3)[nH]c3ccccc23)c1=O [KuHL071, 3-(5-Bromo-1H-indol-3-yl)-4-(2-phenyl-1H-indol-3-yl)cyclobut-3-ene-1,2-dione]
  inhibition at 3 µM: 16 ± 0.7%

## O=c1c(-c2c(-c3ccccc3)[nH]c3ccccc23)c(-c2c(-c3ccccc3)[nH]c3ccccc23)c1=O [KuHL009, 3,4-Bis(2-phenyl-1H-indol-3-yl)cyclobut-3-ene-1,2-dione]
  inhibition at 3 µM: 41.1 ± 0.6%
  inhibition at 30 µM: 98.9 ± 0.8%
  EC50: 2.47 µM

## COc1ccc2[nH]cc(-c3c(-c4c[nH]c5ccc(C#N)cc45)c(=O)c3=O)c2c1 [KuHL103, 3-[2-(5-Methoxy-1H-indol-3-yl)-3,4-dioxocyclobut-1-ene-1-yl]-1H-indol-5-carbonitrile]
  inhibition at 3 µM: 26.8 ± 1.1%

## COc1ccc2[nH]cc(-c3c(-c4c[nH]c5ccc(OC)cc45)c(=O)c3=O)c2c1 [KuHL048, 3,4-Bis(5-methoxy-1H-indol-3-yl)cyclobut-3-ene-1,2-dione]
  inhibition at 3 µM: 19.7 ± 3.6%
  inhibition at 30 µM: 79.3 ± 1.3%

## Cn1cc(-c2c(-c3c[nH]c4ccccc34)c(=O)c2=O)c2ccccc21 [KuHL032, 3-(1H-Indol-3-yl)-4-(1-methyl-1H-indol-3-yl)cyclobut-3-ene-1,2-dione]
  inhibition at 3 µM: 52 ± 1.8%
  inhibition at 30 µM: 98.7 ± 1.1%
  EC50: 2.97 µM

## O=c1c(-c2c[nH]c3ccccc23)c(-c2c[nH]c3ccc(I)cc23)c1=O [KuHL117, 3-(1H-indol-3-yl)-4-(5-iodo-1H-indol-3-yl)cyclobut-3-ene-1,2-dione]
  inhibition at 3 µM: 31.3 ± 2.7%

## CN(CC[C@H](N)CC(=O)N[C@H]1C=C[C@H](n2ccc(N)nc2=O)O[C@@H]1C(=O)O)C(=N)N [Blasticidin, reference compound]
Positive control at 2 μg/mL
  inhibition of parasite growth: > 90%

## COc1ccc2[nH]cc(-c3c(-c4c[nH]c5ccc(Cl)cc45)c(=O)c3=O)c2c1 [KuHL102, 3-(5-Chloro-1H-indol-3-yl)-4-(5-methoxy-1H-indol-3-yl)cyclobut-3-ene-1,2-dione]
  inhibition at 3 µM: 87 ± 0.5%
  EC50: 1.52 µM

## Cc1[nH]c2ccccc2c1-c1c(-c2cn(C)c3ccccc23)c(=O)c1=O [KuHL050, 3-(1-Methyl-1H-indol-3-yl)-4-(2-methyl-1H-indol-3-yl)cyclobut-3-ene-1,2-dione]
  inhibition at 3 µM: 59.6 ± 0.2%
  inhibition at 30 µM: 99.3 ± 0.3%
  EC50: 2.67 µM

## Cn1cc(-c2c(-c3c(-c4ccccc4)[nH]c4ccccc34)c(=O)c2=O)c2ccccc21 [KuHL072, 3-(1-Methyl-1H-indol-3-yl)-4-(2-phenyl-1H-indol-3-yl)cyclobut-3-ene-1,2-dione]
  inhibition at 3 µM: 67.7 ± 0.7%
  EC50: 1.72 µM

## O=c1c(-c2c[nH]c3ccccc23)c(-c2c(-c3ccccc3)[nH]c3ccccc23)c1=O [KuHL044, 3-(1H-Indol-3-yl)-4-(2-phenyl-1H-indol-3-yl)cyclobut-3-ene-1,2-dione]
  inhibition at 3 µM: 65 ± 2.8%
  inhibition at 30 µM: 99.7 ± 0.1%
  EC50: 6.38 µM

## COc1ccc2[nH]cc(-c3c(-c4c(-c5ccccc5)[nH]c5ccccc45)c(=O)c3=O)c2c1 [KuHL058, 3-(5-Methoxy-1H-indol-3-yl)-4-(2-phenyl-1H-indol-3-yl)cyclobut-3-ene-1,2-dione]
  inhibition at 3 µM: 22.4 ± 2.7%

## Cc1[nH]c2ccccc2c1-c1c(-c2c[nH]c3ccccc23)c(=O)c1=O [KuHL025, 3-(1H-Indol-3-yl)-4-(2-methyl-1H-indol-3-yl)cyclobut-3-ene-1,2-dione]
  inhibition at 3 µM: 23.4 ± 5.4%
  inhibition at 30 µM: 98.8 ± 0.5%
  EC50: > 30 µM

## Cc1[nH]c2ccccc2c1-c1c(-c2c[nH]c3ccc(Br)cc23)c(=O)c1=O [KuHL027, 3-(5-Bromo-1H-indol-3-yl)-4-(2-methyl-1H-indol-3-yl)cyclobut-3-ene-1,2-dione]
  inhibition at 3 µM: 45.6 ± 1.8%
  inhibition at 30 µM: 99.3 ± 0.4%
  EC50: 30.5 µM

## COc1ccc2[nH]cc(-c3c(-c4c[nH]c5ccc(Br)cc45)c(=O)c3=O)c2c1 [KuHL047, 3-(5-Bromo-1H-indol-3-yl)-4-(5-methoxy-1H-indol-3-yl)cyclobut-3-ene-1,2-dione]
  inhibition at 3 µM: 100%
  inhibition at 30 µM: 98.8 ± 0.7%
  EC50: 0.47 µM

## Cc1[nH]c2ccccc2c1-c1c(-c2c(-c3ccccc3)[nH]c3ccccc23)c(=O)c1=O [KuHL026, 3-(2-Methyl-1H-indol-3-yl)-4-(2-phenyl-1H-indol-3-yl)cyclobut-3-ene-1,2-dione]
  inhibition at 3 µM: 41.1 ± 1.7%
  inhibition at 30 µM: 98.4 ± 0.5%
  EC50: 9.26 µM

## COc1ccc2[nH]cc(-c3c(-c4c[nH]c5ccc(I)cc45)c(=O)c3=O)c2c1 [KuHL101, 3-(5-Iodo-1H-indol-3-yl)-4-(5-methoxy-1H-indol-3-yl)cyclobut-3-ene-1,2-dione]
  inhibition at 3 µM: 99.1 ± 0.4%
  EC50: 0.65 µM
